# pIC50: −log10 of the molar value. Counter-ions that a name gives are not always drawn.
# Assays:
# Assay type in all cases: biochemical
# [1] = target: T1, Human DAO (Homo sapiens, UniProt P19801); assay: DAO inhibition (Amplex Red continuous fluorescence assay); conditions: 30 min pre-incubation at room temp; substrate histamine; read-out: Human DAO IC50
# T1 sequence (P19801 20-751): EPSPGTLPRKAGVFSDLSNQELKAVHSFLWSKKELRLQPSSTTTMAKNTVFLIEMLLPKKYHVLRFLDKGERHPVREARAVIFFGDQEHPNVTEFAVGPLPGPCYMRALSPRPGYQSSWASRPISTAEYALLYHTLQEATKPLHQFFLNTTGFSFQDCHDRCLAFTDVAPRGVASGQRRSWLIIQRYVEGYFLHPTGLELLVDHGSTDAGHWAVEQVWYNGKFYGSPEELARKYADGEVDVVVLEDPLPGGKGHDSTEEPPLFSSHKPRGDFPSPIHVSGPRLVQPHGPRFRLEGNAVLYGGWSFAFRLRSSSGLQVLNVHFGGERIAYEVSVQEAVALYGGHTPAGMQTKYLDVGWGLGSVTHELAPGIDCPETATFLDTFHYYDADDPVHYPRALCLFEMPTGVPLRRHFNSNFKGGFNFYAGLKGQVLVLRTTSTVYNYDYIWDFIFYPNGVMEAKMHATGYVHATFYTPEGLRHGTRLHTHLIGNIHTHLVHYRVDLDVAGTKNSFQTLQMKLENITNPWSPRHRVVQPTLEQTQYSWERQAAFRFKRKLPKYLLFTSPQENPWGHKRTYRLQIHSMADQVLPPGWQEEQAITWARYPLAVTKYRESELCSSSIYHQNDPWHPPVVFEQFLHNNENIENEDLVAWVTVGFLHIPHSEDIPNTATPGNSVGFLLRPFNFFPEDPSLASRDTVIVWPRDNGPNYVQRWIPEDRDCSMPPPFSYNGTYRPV
# Procedure, shortened: (§1)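 Continuous Amplex Red/HRP fluorescence read of H2O2 (ex/em 510/565 nm, 5 min). Substrates and buffers: VAP-1 benzylamine, […] sodium phosphate pH 7.4, 30 min 37° C preincubation; MAO-A tyramine and MAO-B benzylamine, same buffer, room temp; DAO histamine, 50 mM HEPES pH 7.5, room temp. IC50 from 4-parameter fit of rates.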
# [2] = target: T2, Human MAO-A (Homo sapiens, UniProt P21397); assay: MAO-A inhibition (Amplex Red continuous fluorescence assay); conditions: 30 min pre-incubation at room temp; substrate tyramine; read-out: Human MAO-A IC50
# T2 sequence (P21397 1-527): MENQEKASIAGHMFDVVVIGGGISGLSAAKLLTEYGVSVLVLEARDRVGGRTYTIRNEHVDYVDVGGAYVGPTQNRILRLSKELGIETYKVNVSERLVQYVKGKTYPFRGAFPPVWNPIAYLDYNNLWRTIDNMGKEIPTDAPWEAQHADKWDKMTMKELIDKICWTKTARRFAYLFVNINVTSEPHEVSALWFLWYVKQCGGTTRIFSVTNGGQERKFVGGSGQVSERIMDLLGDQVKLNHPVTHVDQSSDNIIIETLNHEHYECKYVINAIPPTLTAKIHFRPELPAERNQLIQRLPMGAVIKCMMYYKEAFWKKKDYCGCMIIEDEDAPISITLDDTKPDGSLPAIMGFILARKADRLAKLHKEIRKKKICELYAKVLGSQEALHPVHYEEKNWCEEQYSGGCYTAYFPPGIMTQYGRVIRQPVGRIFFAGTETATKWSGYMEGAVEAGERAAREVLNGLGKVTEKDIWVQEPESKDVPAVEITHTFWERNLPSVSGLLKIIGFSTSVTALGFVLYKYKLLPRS
# Procedure, shortened: as §1
# [3] = target: T3, Human MAO-B (Homo sapiens, UniProt P27338); assay: MAO-B inhibition (Amplex Red continuous fluorescence assay); conditions: 30 min pre-incubation at room temp; substrate benzylamine; read-out: Human MAO-B IC50
# T3 sequence (P27338 1-520): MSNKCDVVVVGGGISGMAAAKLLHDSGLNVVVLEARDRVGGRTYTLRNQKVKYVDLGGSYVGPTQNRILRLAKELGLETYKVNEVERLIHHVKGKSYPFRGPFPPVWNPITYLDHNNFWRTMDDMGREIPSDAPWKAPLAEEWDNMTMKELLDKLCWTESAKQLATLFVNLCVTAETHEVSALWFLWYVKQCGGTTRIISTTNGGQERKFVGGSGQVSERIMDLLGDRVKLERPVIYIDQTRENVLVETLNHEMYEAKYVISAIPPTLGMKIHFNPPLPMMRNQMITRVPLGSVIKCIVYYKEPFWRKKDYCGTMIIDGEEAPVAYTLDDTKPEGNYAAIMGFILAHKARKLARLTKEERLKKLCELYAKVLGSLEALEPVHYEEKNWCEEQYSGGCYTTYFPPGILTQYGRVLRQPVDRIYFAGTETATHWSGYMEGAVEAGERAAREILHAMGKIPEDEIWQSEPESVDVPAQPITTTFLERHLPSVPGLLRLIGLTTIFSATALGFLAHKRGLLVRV
# Procedure, shortened: as §1
# [4] = target: T4, Human VAP-1 (Homo sapiens, UniProt Q16853); assay: VAP-1 inhibition assay (Amplex Red continuous fluorescence assay); conditions: 30 min pre-incubation at 37° C.; substrate benzylamine; read-out: Human VAP-1 IC50
# T4 sequence (Q16853 1-763): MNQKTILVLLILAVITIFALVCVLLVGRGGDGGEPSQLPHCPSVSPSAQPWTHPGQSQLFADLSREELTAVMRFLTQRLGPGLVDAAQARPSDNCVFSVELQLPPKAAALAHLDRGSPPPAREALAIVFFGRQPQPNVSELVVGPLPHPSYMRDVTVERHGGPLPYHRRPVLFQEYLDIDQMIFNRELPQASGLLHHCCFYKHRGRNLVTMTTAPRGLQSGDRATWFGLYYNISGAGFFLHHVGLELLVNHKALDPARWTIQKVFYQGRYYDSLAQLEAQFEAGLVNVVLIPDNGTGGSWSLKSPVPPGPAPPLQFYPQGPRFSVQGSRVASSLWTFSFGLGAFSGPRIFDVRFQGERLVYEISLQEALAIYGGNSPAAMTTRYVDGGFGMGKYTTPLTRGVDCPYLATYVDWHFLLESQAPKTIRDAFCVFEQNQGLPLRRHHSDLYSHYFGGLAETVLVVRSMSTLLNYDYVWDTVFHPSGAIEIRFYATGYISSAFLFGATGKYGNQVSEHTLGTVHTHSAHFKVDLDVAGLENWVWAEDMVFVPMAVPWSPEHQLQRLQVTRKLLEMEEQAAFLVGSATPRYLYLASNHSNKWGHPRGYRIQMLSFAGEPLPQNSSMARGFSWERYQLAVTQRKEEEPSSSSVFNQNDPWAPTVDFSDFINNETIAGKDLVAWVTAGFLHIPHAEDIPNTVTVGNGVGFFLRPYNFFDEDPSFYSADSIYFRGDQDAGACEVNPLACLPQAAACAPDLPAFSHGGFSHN
# Procedure, shortened: as §1
SMILES,pIC50 [1],pIC50 [2],pIC50 [3],pIC50 [4]
"NC/C(=C\F)COCc1cccs1 [Compound 41, (E)-3-fluoro-2-((thiophen-2-ylmethoxy)methyl)prop-2-en-1-amine]",< 5.00,> 5.52,> 5.52,> 5.52
"NC/C(=C\F)COc1ccc(-c2cocn2)cc1 [Compound 29, (E)-3-fluoro-2-((4-(oxazol-4-yl)phenoxy)methyl)prop-2-en-1-amine hydrochloride]",> 5.52,> 5.52,> 5.52,> 5.52
